According to patent US8329843B2, “Method for producing amide compound” (Mitsui Chemicals, Inc., priority 2005, dated 2012):

Tested on: microbial cell containing a nitrile hydratase
Type: biochemical
Conditions: benzene 26 ppm or acrolein 2 ppm in raw material acrylonitrile; more wet microbial cell needed
Method: There were prepared a 1-liter glass flask equipped with a stirrer as a first reactor and a Teflon (trademark) tube with an inside diameter of 5 mm and a length of 20 m as a second reactor. To the first reactor was charged 400 g of water in advance.
In accordance with the method described in Japanese Patent Application Laid-Open Publication No. 2001-340091, a microbial cell containing a nitrile hydratase was cultured and the resulting wet microbial cell was suspended in a 0.3 mM-NaOH aqueous solution. The suspension and the acrylonitrile b were continuously fed into the first reactor under stirring at a rate of 49 g/h and 31 g/h, respectively. In addition, the reaction solution was continuously taken out from the first reactor at a rate of 80 g/h so that the liquid level of the first reactor was maintained constant. The liquid taken out was continuously fed into the second reactor at a rate of 80 g/h and the reaction was further performed in the second reactor. […]
The amount of the wet microbial cell added to the 0.3 mM-NaOH aqueous solution was adjusted so that the conversion rate to acrylamide at the outlet of the first reactor was 90% or higher and the concentration of acrylonitrile at the outlet of the second reactor was at the detection limit or less (100 ppm or less). The conversion rate to acrylamide was determined by the analysis of HPLC. […]

Compound	inhibition of reaction by impurity in acrylonitrile
C=CC=O [acrolein]	inhibition of reaction by acrolein was confirmed
c1ccccc1 [benzene]	inhibition of reaction by benzene was confirmed
